{"source": "patent US9955689B2", "about": "“Method for promoting plant growth” (SUMITOMO CHEMICAL COMPANY, LIMITED, priority 2012, dated 2018)"}
{"system": "Corn (Variety: Pioneer 31P41)", "test": "Test Example 8: growth promotion under low-temperature stress by corn seed treatment", "type": "in vivo", "conditions": "corn seed treatment: compound 21 0.5 g, compound 55 0.5 g, 5 g or 50 g per 100 kg corn seeds; 4 days at 2.5±1° C., then 4 days at 27° C.", "experimental": "Test Example 8. Test for Evaluating Growth Promotion Under Low-Temperature Stress by Corn Seed Treatment\nCorn (Variety: Pioneer 31P41 (Manufactured by Pioneer Hi-Bred Japan)\nA blank slurry solution containing 10% (V/V) color coat red (Becker Underwood, Inc.), 10% (V/V) CF-Clear (Becker Underwood, Inc.), and 1.66% Maxim4FS (Syngenta) was prepared. The compound 21 of the present invention was dissolved in the blank slurry such that 0.5 g of the compound was used for treatment per 100 kg corn seeds, and the compound 55 of the present invention was dissolved in the blank slurry such that 0.5 g, 5 g or 50 g of the compound was used for treatment per 100 kg corn seeds respectively, thereby preparing a slurry solution.\nZero point three five (0.35) ml of the slurry solution per 14.4 g of the seeds was put into a 50 ml centrifugal settling tube (manufactured by Becton, Dickinson and Company, Japan), and the slurry solution was stirred until it dries, thereby coating the seeds. Moreover, the seeds coated with the blank slurry were used as seeds for an untreated control plot. […]\nAfter low-temperature stress treatment was performed, the seeds were cultured for 4 days at 27° C., under the conditions of an illuminance of 5,000 lux, and a day length of 16 hours. Thereafter, a fresh weight of the aerial part in plant was measured, and an average weight of each individual was determined. […]"}
{"smiles": "O=C(O)c1sc2ccccc2c1C(=O)O", "note": "[Present compound 55, benzo[b]thiophene-2,3-dicarboxylic acid]", "fresh weight of the aerial part compared with the untreated control plot": "larger"}
{"smiles": "Cc1ccc2sc(C(=O)O)cc2c1", "note": "[Present compound 21]", "fresh weight of the aerial part compared with the untreated control plot": "larger"}
{"system": "Nicotiana benthamiana", "test": "Test Example 5: growth promotion under low-temperature stress by hydroponics of Nicotiana benthamiana (1 ppm)", "type": "in vivo", "conditions": "compound at 1 ppm, 7 days at 1.5±1.0° C. low-temperature stress, then 3 days at 22° C., 5 or greater = growth promotion effect, read-out: value of a relative leaf area (Equation (1), area of green leaf)", "experimental": "Test Example 5. Test for Evaluating Growth Promotion Under Low-Temperature Stress by Hydroponics of Nicotiana benthamiana\n(§1) (Cultivation and Compound Treatment)\nA DMSO solution, which contained one of the compounds 9, 10, 15, 16, 27 to 29, 31 to 37, 40, 44, 47, 48, 52, 55, 56, 58, 61, 63, 81, 87, 89, 92, 95, 98, 100, 102, 105, 108, 109, 111, 113, and 115 of the present invention at a concentration of 1,000 ppm, was prepared. The DMSO solution of the compound of the present invention was added at a volume ratio of 1/1,000 to the Murashige-Scoog medium of a ½-fold concentration (a medium containing 2.3 g of mixed salts (manufactured by Wako Pure Chemical Industries, Ltd.), 200 mg of Myo-inositol (manufactured by Sigme-Aldrich Co. LLC.), 2 mg of niconitic acid (manufactured by Wako Pure Chemical. Industries, Ltd.), 2 mg of pyridoxine hydrochloride (manufactured by Wako Pure Chemical Industries, Ltd.), 20 mg of thiamine hydrochloride (manufactured by Wako Pure Chemical Industries, Ltd.), 20 g of sucrose (manufactured by Wako Pure Chemical Industries, Ltd.), and 1 g of MES (manufactured by DOJINDO LABORATORIES) respectively per 1 L of water and having pH adjusted to 5.8), thereby preparing a medium containing the compound of the present invention at a concentration of 1 ppm.\n(§2) Seeds of Nicotiana benthamiana were seeded in the 5 μL of the medium and cultured overnight at 22° C. Thereafter, 45 μL of the medium containing the compound of the present invention at a concentration of 1 ppm was added thereto, and the seeds are cultured for 7 days at 22° C. under the conditions of an illuminance of 4,000 lux, and a day length of 16 hours, and the seedlings raised from the Nicotiana benthamiana were treated with the compound. Moreover, instead of the above medium a test plot, which was obtained by performing the same treatment by using a medium prepared by adding DMSO to the Murashige⋅Scoog medium of ½-fold concentration at a volume ratio of 1/1,000, was used as a control plot not treated with the compound.\n(§3) (Low-Temperature Stress Treatment)\n(§4) The seedlings of the Nicotiana benthamiana treated with the compound were subjected to low-temperature treatment by being cultured for 7 days at 1.5±1.0° C., under the conditions of an illuminance of 2,000 lux, and a day length of 16 hours.\nThe seedlings of the Nicotiana benthamiana having undergone the low-temperature stress treatment were cultured for 3 days at 22° C. under the conditions of an illuminance of 4,000 lux, and a day length of 16 hours. Thereafter, the area of green leaf was quantified by Scanalyzer HTS (manufactured by LemnaTec GmbH). Moreover, the value of the control plot not treated with the compound that had not yet been subjected to the low-temperature stress treatment was measured in the same manner. A value of a relative leaf area was calculated based on the following equation (1), and if the relative value of leaf area was 5 or greater, the compound was evaluated to have a growth promotion effect. As a result of the evaluation, it was confirmed that when the plant was treated with one of the compounds 9, 10, 15, 16, 27 to 29, 31 to 37, 40, 44, 47, 48, 52, 55, 56, 58, 61, 63, 81, 87, 89, 92, 95, 98, 100, 102, 105, 108, 109, 111, 113, and 115 of the present invention at 1 ppm, the value of a relative leaf area was 5 or greater, compared to the area of green leaf of the control plot not treated with compound. Accordingly, it was confirmed that the treatment using the compound of the present invention improve a growth promotion effect. Relative leaf area=100*(a green area of a plot treated with the compound of the present invention minus(−) a green area of a plot not treated with the compound of the present invention)/(a green area of a control plot not treated with the compound of the present invention that had not yet been subjected to low-temperature stress treatment minus(−) a green area of a control plot not treated with the compound of the present invention) Equation (1): […]", "units": {"relative leaf area at 1 ppm": "%"}}
{"smiles": "O=C(O)c1sc2ccccc2c1C(=O)O", "note": "[Present compound 55, benzo[b]thiophene-2,3-dicarboxylic acid]", "relative leaf area at 1 ppm": "≥ 5"}
{"system": "Nicotiana benthamiana", "test": "Test Example 6: growth promotion under low-temperature stress by hydroponics of Nicotiana benthamiana (0.1 ppm)", "type": "in vivo", "conditions": "compound at 0.1 ppm, 7 days at 1.5±1.0° C. low-temperature stress, then 3 days at 22° C., 5 or greater = growth promotion effect, read-out: value of a relative leaf area (Equation (1), area of green leaf)", "experimental": "Test Example 6. Test for Evaluating Growth Promotion Under Low-Temperature Stress by Hydroponics of Nicotiana benthamiana\nas §1\nA DMSO solution, which contained one of the compounds 2, 3, 7, 11 to 13, 20, 23, 24, 30, 38, 39, 41 to 43, 46, 50, 64, 68, 80, 82, 88, 93, 94, 96, 104, 107, and 112 of the present invention at a concentration of […], was prepared. The DMSO solution of the compound of the present invention was added at a volume ratio of 1/1,000 to the Murashige⋅Scoog medium of a ½-fold concentration (a medium containing 2.3 g of mixed salts (manufactured by Wako Pure Chemical Industries, Ltd.), 200 mg of Myo-inositol (manufactured by Sigme-Aldrich Co. LLC.), 2 mg of niconitic acid (manufactured by Wako Pure Chemical Industries, Ltd.), 2 mg of pyridoxine hydrochloride (manufactured by Wako Pure Chemical Industries, Ltd.), 20 mg of thiamine hydrochloride (manufactured by Wako Pure Chemical Industries, Ltd.), 20 g of sucrose (manufactured by Wako Pure Chemical Industries, Ltd.), and 1 g of […] (manufactured by DOJINDO LABORATORIES) respectively per 1 L of water and having pH adjusted to 5.8), thereby preparing a medium containing the compound of the present invention at a concentration of 0.1 ppm.\nas §2, with “concentration of 0.1 ppm was” for “concentration of 1 ppm was”, “to the Murashige′Scoog medium of” for “to the Murashige⋅Scoog medium of”\nas §3, §4\nThe seedlings of the Nicotiana benthamiana having undergone the low-temperature stress treatment were cultured for 3 days at 22° C., under the conditions of an illuminance of 4,000 lux, and a day length of 16 hours. Thereafter, the area of green leaf was quantified by Scanalyzer HTS (manufactured by LemnaTec GmbH). Moreover, the value of the control plot not treated with the compound that had not yet been subjected to the low-temperature stress treatment was measured in the same manner. A value of a relative leaf area was calculated based on the following equation (1), and if the relative value of leaf area was 5 or greater, the compound was evaluated to have a growth promotion effect. As a result of the evaluation, it was confirmed that when the plant was treated with one of the compounds 2, 3, 7, 11 to 13, 20, 23, 24, 30, 38, 39, 41 to 43, 46, 50, 64, 68, 80, 82, 88, 93, 94, 96, 104, 107, and 112 of the present invention at 0.1 ppm, the value of a relative leaf area was 5 or greater, compared to the area of green leaf of the control plot not treated with compound. Accordingly, it was confirmed that the treatment using the compound of the present invention improve a growth promotion effect. Relative leaf area=100*(a green area of a plot treated with the compound of the present invention minus(−) a green area of a plot not treated with the compound of the present invention)/(a green area of a control plot not treated with the compound of the present invention that had not yet been subjected to low-temperature stress treatment minus(−) green area of a control plot not treated with the compound of the present invention) Equation (1): […]", "units": {"relative green leaf area at 0.1 ppm": "%"}}
{"smiles": "O=C(O)c1sc2ccc(C(F)(F)F)cc2c1C(F)(F)F", "note": "[Present compound 107, 3,5-bis(trifluoromethyl)benzo[b]thiophene-2-carboxylic acid]", "relative green leaf area at 0.1 ppm": "≥ 5"}
{"smiles": "O=C(O)c1sc2ccccc2c1OCc1ccccc1", "note": "[Present compound 88, 3-benzyloxybenzo[b]thiophene-2-carboxylic acid]", "relative green leaf area at 0.1 ppm": "≥ 5"}
{"smiles": "Cc1cccc2cc(C(=O)O)sc12", "note": "[Present compound 23, 7-methylbenzo[b]thiophene-2-carboxylic acid]", "relative green leaf area at 0.1 ppm": "≥ 5"}
{"smiles": "CN(C)c1cccc2sc(C(=O)O)cc12", "note": "[Present compound 64, 4-(dimethylamino)benzo[b]thiophene-2-carboxylic acid]", "relative green leaf area at 0.1 ppm": "≥ 5"}
{"smiles": "O=C(O)c1sc2ccccc2c1O", "note": "[Present compound 80, 3-hydroxybenzo[b]thiophene-2-carboxylic acid]", "relative green leaf area at 0.1 ppm": "≥ 5"}
{"smiles": "Cc1ccccc1Oc1cccc2cc(C(=O)O)sc12", "note": "[Present compound 94, 7-(2-methylphenoxy)benzo[b]thiophene-2-carboxylic acid]", "relative green leaf area at 0.1 ppm": "≥ 5"}
{"smiles": "Cc1c(C(=O)O)sc2ccccc12", "note": "[Present compound 24, 3-methylbenzo[b]thiophene-2-carboxylic acid]", "relative green leaf area at 0.1 ppm": "≥ 5"}
{"smiles": "O=C(O)c1cc2cc(-c3cccc(Cl)c3)ccc2s1", "note": "[Present compound 38, 5-(3-chlorophenyl)benzo[b]thiophene-2-carboxylic acid]", "relative green leaf area at 0.1 ppm": "≥ 5"}
{"smiles": "COc1ccc2sc(C(=O)O)cc2c1", "note": "[Present compound 82, 5-methoxybenzo[b]thiophene-2-carboxylic acid]", "relative green leaf area at 0.1 ppm": "≥ 5"}
{"smiles": "O=C(O)c1cc2cccc(Oc3ccc(OC(F)(F)F)cc3)c2s1", "note": "[Present compound 96]", "relative green leaf area at 0.1 ppm": "≥ 5"}
{"smiles": "O=C(O)c1cc2cc(-c3ccncc3)ccc2s1", "note": "[Present compound 46, 5-(4-pyridyl)benzo[b]thiophene-2-carboxylic acid]", "relative green leaf area at 0.1 ppm": "≥ 5"}
{"smiles": "O=C(O)c1cc2cc(-c3cccs3)ccc2s1", "note": "[Present compound 50, 5-(2-thienyl)benzo[b]thiophene-2-carboxylic acid]", "relative green leaf area at 0.1 ppm": "≥ 5"}
